From patent US20220009914A1, “Analogs of Nitrofuran Antibiotics to Combat Resistance” (The Trustees of Indiana University, priority 2020, published 2022) come the findings set out here.

One experiment concerns the target T1, E. coli GroEL/ES (Escherichia coli, UniProt P0A6F5).
T1 construct: made in house; host or cells: GroEL in NEB 5-alpha E. coli; GroES in E. coli BL21 (DE3)
The experiment in a line: GroEL/ES-mediated dMDH refolding assay in the presence of E. coli NfsB nitroreductase. The following applies: for GroEL/ES inhibition in words: in the presence of E. coli NfsB. It is filed as biochemical. On the procedure:
Evaluating compounds for inhibition in the GroEL/ES-mediated dMDH refolding assay and native MDH activity counter-screen in the presence of E. coli NfsB nitroreductase. These assays were performed nearly identically to those mentioned above, but with a couple distinct modifications. For both assays, 10 μg/mL of the E. coli NfsB nitroreductase enzyme (Sigma product #N9284) was added to the initial GroEL/ES-dMDH solution. For the GroEL/ES-dMDH refolding assay, after stamping with compounds, 10 μL of a 2.4 mM NADH solution was added, followed by a 10 minute incubation period at 37° C. to bioactivate the nitrofuran analogs. The remainder of the assay was conducted as in our standard protocol where no NfsB nitroreductase was present. […] For the native MDH activity counter-screen in the presence of E. coli NfsB nitroreductase, the assay was performed as described above for the GroEL/ES-dMDH refolding assay with NfsB; however, compound addition to the assay plates was conducted after the EDTA quench step, followed by a 10 minute incubation period at 37° C. to bioactivate the nitrofuran analogs. […] Results presented represent the averages of IC50 values obtained from at least four replicates in each assay.
Evaluating analogs for inhibiting GroEL/ES-mediated substrate refolding functions in the presence of the E. coli NfsB type-1 nitroreductase. […] However, our standard GroEL/ES-mediated refolding assays and native substrate reporter counter-screens were conducted without nitroreductases present.

The subject of experiment [1] is NEB 5-alpha Escherichia coli. The experiment in a line: bacterial proliferation assay, E. coli. It is filed as cell-based. Particulars: for EC50: Escherichia coli, read-out: Bacterial Proliferation EC50 E. coli. On the procedure:
(§1) All compounds were evaluated for inhibiting the proliferation of E. coli and each of the ESKAPE bacteria. Results presented represent the averages of EC50 values obtained from at least four replicates. Evaluating compounds for inhibition of bacterial cell proliferation.
(§2) Growth Media: E. coli were grown with LB medium and all ESKAPE bacteria were grown in Brain Heart Infusion (BHI) medium (Becton, Dickinson and Company), with all liquid cultures supplemented with 25 mg/L Ca^2+ and 12.5 mg/L Mg^2+ to mimic physiological free concentrations of these cations. A 10 mg/mL Ca^2+ stock solution was prepared by dissolving 1.84 g of CaCl2.2H2O in 50 mL of deionized water, and a 10 mg/mL Mg^2+ stock solution was prepared by dissolving 4.18 g of MgCl2.6H2O in 50 mL deionized water—filter sterilized using 0.2 μm cellulose-acetate filters. 2.5 mL of the sterile 10 mg/mL Ca^2+ stock and 1.25 mL of the sterile 10 mg/mL Mg^2+ stock solutions were added per 1 L of autoclaved LB or BHI media to obtain 25 mg/L Ca^2+ and 12.5 mg/L Mg^2+ ions, respectively.
(§3) General Assay Protocol: Stock bacterial cultures were streaked onto LB or BHI agar plates and grown overnight at 37° C. Fresh aliquots of cation supplemented media were inoculated with single bacterial colonies and the cultures were grown overnight at 37° C. with shaking (240 rpm). The following morning, cultures were diluted 10-fold into fresh media and grown at 37° C. until bacteria had reached mid-log phase growth (OD600˜0.4-0.6). The cultures were then diluted into fresh media to achieve final OD600 readings of 0.017. Aliquots of these diluted cultures (30 μL) were added to clear, flat-bottom 384-well polystyrene plates that were previously stamped with 0.5 μL of test compounds in 20 μL of media (yielding initial OD600=0.01 bacterial cultures). All compounds were tested in dose-response with concentration ranges during the proliferation assays from 100 μM to 46 nM (3-fold dilution series). A second set of baseline control plates were prepared analogously, but without any bacteria added, to correct for possible compound absorbance and/or precipitation. […] Plates were then read at 600 nm using a Molecular Devices SpectraMax Plus384 microplate reader. […] Results presented represent the averages of EC50 values obtained from at least four replicates.
(§4) Evaluating analogs for inhibiting the growth of E. coli and the ESKAPE bacteria. Analogs were initially tested for antibacterial efficacy against representative strains of antibiotic-sensitive E. coli and the ESKAPE bacteria. To determine compound efficacy, bacterial proliferation assays were carried out in liquid media culture supplemented with physiological concentrations of free calcium and magnesium cations. For these assays, bacterial cultures (OD600=0.01) were exposed to test compounds in 8-point, 3-fold dilution series (100 μM to 46 nM concentration range), in 384-well plates. After addition of compounds to cultures, the plates were sealed with Breathe-Easy gas permeable membranes and allowed to grow to mid-log phase (OD600˜0.4-0.6), whereupon final OD600 readings were taken to assess for bacterial growth and inhibition.

Experiment [2] relates to Klebsiella pneumoniae strain NCTC 9633 (ATCC #13883). The experiment in a line: bacterial proliferation assay, K. pneumoniae. It is filed as cell-based. Particulars: read-out: Bacterial Proliferation EC50 K. pneumoniae. On the procedure: as §1, §2, §3, §4
Experiment [3] concerns Enterobacter cloacae strain CDC 442-68 (ATCC #13047). The experiment in a line: bacterial proliferation assay, E. cloacae. It is filed as cell-based. Particulars: ATCC13047, read-out: Bacterial Proliferation EC50 E. cloacae. On the procedure:
as §1, §2, §3, §4

[4] abbreviates: with E. coli NfsB nitroreductase, read-out: NfsB-GroEL/ES-dMDH Refolding IC50.

Where two headings read alike, the source gives them in different places. Bounds are passed on as bounds.

T1 sequence (P0A6F5 2-548): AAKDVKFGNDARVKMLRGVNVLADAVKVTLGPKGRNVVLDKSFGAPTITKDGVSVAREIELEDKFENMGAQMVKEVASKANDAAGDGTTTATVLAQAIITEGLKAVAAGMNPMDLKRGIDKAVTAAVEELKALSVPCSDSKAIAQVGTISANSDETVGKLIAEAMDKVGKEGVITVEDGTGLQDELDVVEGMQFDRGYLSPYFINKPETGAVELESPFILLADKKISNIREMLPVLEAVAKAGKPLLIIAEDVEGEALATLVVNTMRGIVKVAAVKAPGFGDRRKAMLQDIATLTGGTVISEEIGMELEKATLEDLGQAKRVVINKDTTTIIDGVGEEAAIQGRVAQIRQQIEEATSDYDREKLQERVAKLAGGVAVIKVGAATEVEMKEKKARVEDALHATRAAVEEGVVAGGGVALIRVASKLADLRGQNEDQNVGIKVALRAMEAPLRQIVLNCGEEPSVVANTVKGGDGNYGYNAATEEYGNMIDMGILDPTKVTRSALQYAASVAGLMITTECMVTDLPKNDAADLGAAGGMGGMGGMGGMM

Consider `O=C(N/N=C/c1ccc(O)c2ncccc12)c1ccccc1` [Compound 5, N′-((8-hydroxyquinolin-5-yl)methylene)benzohydrazide], for which the IC50 on E. coli GroEL/ES is > 83 µM. Also, the EC50 was 63 µM in experiment [1], 82 µM in experiment [2] (Klebsiella pneumoniae) and 80 µM in experiment [3].
For `COc1ccc(C(=O)N/N=C/c2ccccc2)cc1` [Compound 37, N′-benzylidene-4-methoxybenzohydrazide], in that order: > 83 µM, > 100 µM, > 100 µM and > 100 µM.
For `O=C(N/N=C/c1ccc([N+](=O)[O-])o1)c1cccc(Oc2ccccc2)c1` [Compound 24, N′-((5-nitrofuran-2-yl)methylene)-3-phenoxybenzohydrazide], in that order: 2.8 µM, > 100 µM, > 100 µM and > 100 µM.
For the compound `CN(C)c1ccc(C(=O)N/N=C/c2ccc([N+](=O)[O-])o2)cc1` [Compound 21, 4-(dimethylamino)-N′-((5-nitrofuran-2-yl)methylene)benzohydrazide], the IC50 at E. coli GroEL/ES (setting [4]) came to 12 µM. Also, the EC50 was 10 µM in experiment [1], > 100 µM in experiment [2] (Klebsiella pneumoniae) and > 100 µM in experiment [3].
Regarding `O=C(N/N=C/c1ccc([N+](=O)[O-])o1)c1ccncc1` [Compound 19, N′-((5-nitrofuran-2-yl)methylene)isonicotinohydrazide], the IC50 on E. coli GroEL/ES (setting [4]) stood at 23 µM. The EC50 in experiment [1] is 2.4 µM; in experiment [2] (Klebsiella pneumoniae), 42 µM; in experiment [3] it was 73 µM.
On to `O=C1CN(/N=C/c2ccc([N+](=O)[O-])o2)C(=O)N1` [Nitrofurantoin, reference compound], for which, at E. coli GroEL/ES, the “GroEL/ES inhibition in words” value is “weak to moderate GroEL/ES inhibitors”. The IC50 on E. coli GroEL/ES (setting [4]) was found to be 84 µM. In addition, in experiment [1], the “inhibition of E. coli proliferation in words” value is recorded as “potent inhibitors”. In addition, the EC50 in experiment [1] is 0.69 µM; in experiment [2] (Klebsiella pneumoniae), 40 µM; in experiment [3], 36 µM.
For the compound `COc1ccc(C(=O)N/N=C/c2cccc3ccccc23)cc1` [Compound 33, 4-methoxy-N′-(naphthalen-1-ylmethylene)benzohydrazide], on E. coli GroEL/ES, the IC50 is > 83 µM. The EC50 in experiment [1], in experiment [2] (Klebsiella pneumoniae) and in experiment [3] was > 100 µM throughout.
In the case of `O=C(N/N=C/c1ccc(O)c2ncccc12)c1cccc2ccccc12` [Compound 9, N′-((8-hydroxyquinolin-5-yl)methylene)-1-naphthohydrazide], the IC50 at E. coli GroEL/ES is 7.7 µM. Also, the EC50 in experiment [1], in experiment [2] (Klebsiella pneumoniae) and in experiment [3] was > 100 µM each time.
In the case of `O=[N+]([O-])c1ccc(O)c2ncccc12` [Nitroxoline, reference compound], the IC50 at E. coli GroEL/ES turned out to be 27 µM. For the same compound, the EC50 came to 4 µM in experiment [1], 2.8 µM in experiment [2] (Klebsiella pneumoniae) and 6.6 µM in experiment [3].
For `COc1ccc(C(=O)N/N=C/c2ccc(O)c3ncccc23)cc1` [Compound 1, N′-((8-hydroxyquinolin-5-yl)methylene)-4-methoxybenzohydrazide], at E. coli GroEL/ES, the IC50 is 66 µM. Moreover, the EC50 in experiment [1] is > 100 µM; in experiment [2], 85 µM; in experiment [3], 100 µM.
For the compound `COc1ccc(C(=O)N/N=C/c2ccc([N+](=O)[O-])o2)cc1` [Compound 20, 4-methoxy-N′-((5-nitrofuran-2-yl)methylene)benzohydrazide], on E. coli GroEL/ES (setting [4]), the IC50 is 10 µM. In addition, the EC50 in experiment [1] is 1.9 µM; in experiment [2] (Klebsiella pneumoniae) it was > 100 µM; in experiment [3] it was > 100 µM.
As to `O=C(N/N=C/c1ccc([N+](=O)[O-])o1)c1ccc(NS(=O)(=O)c2ccc(Br)cc2)cc1` [Compound 27, 4-bromo-N-(4-(2-((5-nitrofuran-2-yl)methylene)hydrazine-1-carbonyl)phenyl)benzenesulfonamide], on E. coli GroEL/ES, the IC50 was 2 µM. The EC50 in experiment [1], in experiment [2] (Klebsiella pneumoniae) and in experiment [3] was > 100 µM in each case.
Regarding `COc1ccc(C(=O)N/N=C/c2cccc3ncccc23)cc1` [Compound 31, 4-methoxy-N′-(quinolin-5-ylmethylene)benzohydrazide], on E. coli GroEL/ES, the IC50 was > 83 µM. Besides, the EC50 in experiment [1], in experiment [2] (Klebsiella pneumoniae) and in experiment [3] was > 100 µM throughout.
Take `O=C(N/N=C/c1ccc(O)c2ncccc12)c1ccc(O)cc1` [Compound 7, 4-hydroxy-N′-((8-hydroxyquinolin-5-yl)methylene)benzohydrazide]: the IC50 on E. coli GroEL/ES is 16 µM. The figures for the EC50 in experiment [1], in experiment [2] (Klebsiella pneumoniae) and in experiment [3] were 46 µM, 87 µM and 97 µM, respectively.
For the compound `O=C(N/N=C/c1ccc([N+](=O)[O-])o1)c1ccccc1` [Compound 18, N′-((5-nitrofuran-2-yl)methylene)benzohydrazide], the IC50 at E. coli GroEL/ES (setting [4]) was 12 µM. The EC50 in experiment [1] was 2.1 µM; in experiment [2] (Klebsiella pneumoniae), 36 µM; in experiment [3], > 100 µM.
Regarding `O=Cc1ccc([N+](=O)[O-])o1` [Compound 41, reference compound], the IC50 at E. coli GroEL/ES was > 83 µM. For the same compound, the EC50 stood at 9.5 µM in experiment [1], 10 µM in experiment [2] (Klebsiella pneumoniae) and 13 µM in experiment [3].
As to `O=C(N/N=C/c1ccc([N+](=O)[O-])o1)c1ccc(O)cc1` [Nifuroxazide, reference compound], the “GroEL/ES inhibition in words” value at E. coli GroEL/ES is given as “weak to moderate GroEL/ES inhibitors”. Moreover, at E. coli GroEL/ES (setting [4]), the IC50 was found to be 19 µM. Besides, the “inhibition of E. coli proliferation in words” value in experiment [1] is “potent inhibitors”. Besides, the EC50 in experiment [1] came out at 0.87 µM; in experiment [2] (Klebsiella pneumoniae), 37 µM; in experiment [3] it was 54 µM.
As for `CN(C)c1ccc(C(=O)N/N=C/c2ccc(O)c3ncccc23)cc1` [Compound 8, 4-(dimethylamino)-N′-((8-hydroxyquinolin-5-yl)methylene)benzohydrazide], the IC50 at E. coli GroEL/ES stood at 25 µM. Further, the EC50 in experiment [1] is 93 µM; in experiment [2] (Klebsiella pneumoniae) it was > 100 µM; in experiment [3], > 100 µM.
As to `O=C(N/N=C/c1ccc(O)c2ncccc12)c1cccc(Oc2ccccc2)c1` [Compound 11, N′-((8-hydroxyquinolin-5-yl)methylene)-3-phenoxybenzohydrazide], the IC50 at E. coli GroEL/ES was 21 µM. The EC50 in experiment [1], in experiment [2] (Klebsiella pneumoniae) and in experiment [3] was > 100 µM in each case.
Turning to `O=C(N/N=C/c1ccc([N+](=O)[O-])o1)c1ccccc1Oc1ccccc1` [Compound 23, N′-((5-nitrofuran-2-yl)methylene)-2-phenoxybenzohydrazide], the EC50 in experiment [1], in experiment [2] (Klebsiella pneumoniae) and in experiment [3] was > 100 µM throughout.
